Experimental data as given in US10041047B2, “Compositions and methods for epithelial stem cell expansion and culture” (The Brigham and Women's Hospital, Inc., priority 2013, dated 2018).

Experiments:
[1] = test system: Lgr5+ stem/progenitor cells derived from the mouse inner ear; experiment: Culture of inner ear (cochlear) Lgr5-GFP epithelial cells in Matrigel; assay type: cell-based; settings: single cochlear epithelial cells, 11 days (FIG. 13B)
Lgr5+ stem cells = experiment: Quantitative real-time PCR of mature intestinal epithelial cell markers and Lgr5, 6 day culture (FIG. 6D); assay type: cell-based, mouse
Procedure: FIGS. 6A-6D depict maintenance of Lgr5+ stem cell self-renewal by the combination of CHIR and VPA. Confocal images of Lysozyme (FIG. 6A), Ki67 (FIG. 6B) and EdU (FIG. 6C) staining of organoids cultured under the ENR condition (Upper panels) and colonies cultured in the ENR-CV condition (Lower panels) are shown. For EdU staining, cells were cultured with the thymidine analogue EdU (red) for 1 hour. In FIGS. 6B and 6C, only crypt domains contain Ki67 positive cells or incorporate EdU in the ENR condition (Upper panels) while Ki67 or EdU is present throughout the cell aggregates in the CV condition (Lower panels). FIG. 6D depicts quantitative real-time PCR analysis of relative mRNA expression of markers for mature intestinal epithelial cells cultured for 6 days under conditions as indicated (Intestinal Alkaline phosphatase [Alpi] for enterocytes, Mucin 2 [Muc2] for goblet cells, Chromogranin A [ChgA] for enteroendocrine cells, Lysozyme [Lyz] for Paneth cells, and Lgr5 for intestinal stem cells). ENR-CV(D40) indicates cells that were cultured in the CV condition for 40 days. Scale bars: 50 μm. In FIG. 6D, the series are, from left to right, Alpi, Muc2, ChgA, Lyz, and Lgr5.
As previously reported, cells in the ENR condition grew into organoids with crypt-villus structure containing all intestinal epithelial cell types, confirmed by staining of alkaline phosphatase (Alp) positive enterocytes, Mucin 2 (Muc2) positive goblet cells, Chromogranin A (ChgA) positive enteroendocrine cells, Lysozyme (Lyz) positive Paneth cells and Lgr5-GFP^+ stem cells. Lgr5^+ stem cells only reside at the tips of crypt (FIGS. 6A and 7A). […] In the CV condition, however, GFP^+ stem cells were present throughout the entire colony with minimal presence of Paneth cells (FIG. 6A) and without the presence of other cells types. Compared to ENR culture, Ki67 or EdU positive proliferating cells in the CV condition existed throughout the cell colony (FIGS. 6B and 6C). […] This expression pattern was maintained over multiple passages, and the Lgr5 expression level was maintained (FIG. 6D). […]

[2] = test system: Lgr5+ stem/progenitor cells derived from the mouse inner ear; experiment: Culture of inner ear (cochlear) Lgr5-GFP epithelial cells in Matrigel; assay type: cell-based; settings: organ of Corti single cells, Matrigel, 8 days
Text: The same culture condition (EGF, Noggin, R-spondin1, or “ENR”) as used in Lgr5+ small intestinal stem cell cultures was first established.
Isolated organ of Corti from Lgr5-GFP mice were dissociated into single cells using accutase and cultured in multiple combinations of soluble factors and small molecules in Matrigel for 8 days. The resulting cultures were further dissociated into single cells and analyzed using FACS. […] In addition, the combination of EGF, bFGF and IGF-1 (designated as EFI) improved cell proliferation and GFP expression compared with the ENR condition (FIG. 14A-14C).
To further investigate the effects of individual growth factors when combined with CHIR and VPA, growth factors including Mitogenic growth factors (EGF, bFGF and IGF-1) as well as the Wnt agonist R-spondin 1 in combination with CHIR and VPA were tested.

[3] = test system: Lgr5+ stem cells from the colon; experiment: Colon crypt culture, Lgr5-GFP expression; assay type: cell-based, mouse; settings: colon crypts (FIG. 3F)
Text: FIGS. 3A and 3B depict colony numbers and live single cell numbers, respectively, from triplicate wells enumerated at each time point. Error bars indicate S.D. In FIG. 3A, the series are, from left to right, Day 0, Day 2, Day 4, Day 6, Day 8, and Day 10. FIG. 3C depicts FACS sorting of freshly isolated single Lgr5-GFP+ cells. A GFP^high single cell population was collected. Representative FACS analysis and the gating strategy to define the GFP+ cell population is shown. […] The GFP-population represents Lgr5- cells as well as Lgr5+/GFP- cells (i.e. GFP silenced stem cells), which is present in all unsorted crypt cultures, but not in sorted single Lgr5-GFP cell cultures (See FIG. 2C). A total of 10,000 live cells were analyzed for each sample. FIG. 3D depicts growth factor requirements for self-renewal of Lgr5+ stem cells in the CV culture condition. Crypts were cultured for 6 days in the presence of CHIR and VPA, with EGF, Noggin, R-spondin 1 and their combinations, as indicated. E: EGF (50 ng/ml); N: Noggin (100 ng/ml); R: R-spondin 1 (500 ng/ml); […] (1 mM). FIG. 3E depicts crypts cultured for 6 days in multiple conditions as indicated. GFP and brightfield images are shown. Scale bars: 200 μm. FIG. 3F depicts morphology and Lgr5-GFP expression of colon crypts cultured in ENR, ENR-C and ENR-CV conditions. […]

[4] = test system: Notch pathway genes (Notch1, Hes1, Atoh1); experiment: Real-time RT-PCR of Notch pathway genes in cultured crypts; assay type: cell-based, mouse; settings: VPA added to ENR or ENR-C for 24 hours
Procedure: Crypts were cultured in ENR-C condition with or without DAPT (D, 5 μM) and varying concentration of VPA (V, 0.25-4 mM) for 3 days. […] FIGS. 11B and 11C depict crypts cultured in the ENR (FIG. 11B) or ENR+CHIR (FIG. 11C) conditions for 4 days followed by addition of VPA at different concentrations for another 24 hours. The expression of Notch1, Hes1 and Atoh1 were analyzed by Real-time RT-PCR.
To investigate the effect of VPA on the activation of the Notch pathway, cells cultured in ENR or ENRC conditions were treated with VPA and analyzed for the expression of Notch pathway genes.

[5] = test system: human small intestinal crypts; experiment: Culture of human small intestinal crypts: LGR5 expression (RT-PCR) and cell number; assay type: cell-based; settings: cell numbers at day 9 after seeding (FIG. 25A)
Text: Human small intestinal crypts were isolated from a resected normal small intestinal specimen and cultured as described in Example 1. The same cell culture solutions used in the culture of mouse small intestinal stem cells/crypts, which comprise a combination of CHIR99021 and VPA or Tubastatin A added to the ENR (EGF, Noggin, R-Spondin 1) condition, were compared to published cell culture solutions for human intestinal stem cells/crypts (Jung et al., 2011; Sato et al., 2011). RT-PCR was used to assess the maintenance of epithelial stem cells in the culture, specifically by determining the self-renewal or differentiation status. LGR5 was used as a stem cell marker and ALPI, MUC2, CHGA and LYZ were used as differentiation markers. Cell growth was assessed by counting the cell number in the cultures and by observing the morphology and size of colonies.

| Structure (SMILES) | GFP expression [1] | cell proliferation [1] | colony-forming efficiency [1] | Paneth cell differentiation (Lgr5+ stem cells) | enterocyte differentiation (Lgr5+ stem cells) | GFP expression (in words) [2] | cell proliferation (in words) [2] | secretory differentiation (Lgr5+ stem cells) | GFP expression of Lgr5+ stem cells from the colon [3] | expression of Hes1 [4] | expression of Notch1 [4] | proliferation of human small intestinal crypts (cell number) [5] |
| --- | --- | --- | --- | --- | --- | --- | --- | --- | --- | --- | --- | --- |
| Cc1cnc(-c2cnc(NCCNc3ccc(C#N)cn3)nc2-c2ccc(Cl)cc2Cl)[nH]1 [CHIR99021, 6-[[2-[[4-(2,4-Dichlorophenyl)-5-(5-methyl-1H-imidazol-2-yl)-2-pyrimidinyl]amino]ethyl]amino]-3-pyridinecarbonitrile] | not CHIR alone | not CHIR alone | not CHIR alone | increased | reduces | not CHIR or VPA alone | not CHIR or VPA alone | – | – | – | – | – |
| CCCC(CCC)C(=O)O [Valproic Acid] | – | – | – | – | – | not CHIR or VPA alone | not CHIR or VPA alone | decreased | promoted GFP expression | moderately decreased | moderately decreased | increased cell proliferation |
